Activity calls are given as the source filed them. The calls are words filed in the database; no cut-off is given here.
Legend:
[1] = target: T1, C-X-C chemokine receptor type 2 (Homo sapiens, UniProt P25025); assay: Antagonist activity at human CXCR2 expressed in HEK293 cells assessed as inhibition of CXCL8-induced beta-arrestin recruitment preincubated for 30 mins followed by addition of agonist incubated for 90 mins by beta arrestin assay; format: functional, cell-based
T1 sequence (P25025 whole entry): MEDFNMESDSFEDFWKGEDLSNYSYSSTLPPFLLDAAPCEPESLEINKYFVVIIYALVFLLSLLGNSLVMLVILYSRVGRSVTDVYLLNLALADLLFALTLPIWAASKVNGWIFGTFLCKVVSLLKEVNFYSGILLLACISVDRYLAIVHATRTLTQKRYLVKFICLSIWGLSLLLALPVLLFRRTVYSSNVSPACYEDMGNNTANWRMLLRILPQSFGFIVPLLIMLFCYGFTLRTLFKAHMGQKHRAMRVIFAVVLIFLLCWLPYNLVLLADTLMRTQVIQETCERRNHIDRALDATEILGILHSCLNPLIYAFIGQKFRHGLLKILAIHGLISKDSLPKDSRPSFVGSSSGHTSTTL

[2] = target: T1, C-X-C chemokine receptor type 2; assay: Displacement of [I-125]-interleukin-8 against human recombinant CXCR2 expressed in CHO-K1 cells incubated for 60 mins by radio ligand binding assay; format: cell-based
[3] = Tmax in ICR mouse at 3 mg/kg, iv measured upto 48 hrs; format: ADME, organism-based; details: in vivo
[4] = Tmax in ICR mouse at 30 mg/kg, po measured upto 48 hrs; format: ADME, organism-based; details: in vivo
[5] = Cmax in ICR mouse at 3 mg/kg, iv measured upto 48 hrs; format: ADME, organism-based; design: route intravenous, dose 3 mg/kg, time <=48; details: in vivo
[6] = Cmax in ICR mouse at 30 mg/kg, po measured upto 48 hrs; format: ADME, organism-based; design: route oral, dose 30 mg/kg, time <=48; details: in vivo
[7] = AUC (0 to t) in ICR mouse at 3 mg/kg, iv measured upto 48 hrs; format: ADME, organism-based; design: route intravenous, dose 3 mg/kg, time <=48; details: in vivo
[8] = AUC (0 to t) in ICR mouse at 30 mg/kg, po measured upto 48 hrs; format: ADME, organism-based; design: route oral, dose 30 mg/kg, time <=48; details: in vivo
[9] = AUC (0 to infinity) in ICR mouse at 3 mg/kg, iv measured upto 48 hrs; format: ADME, organism-based; design: route intravenous, dose 3 mg/kg, time <=48; details: in vivo
[10] = AUC (0 to infinity) in ICR mouse at 30 mg/kg, po measured upto 48 hrs; format: ADME, organism-based; design: route oral, dose 30 mg/kg, time <=48; details: ICR, in vivo
[11] = Half life in ICR mouse at 3 mg/kg, iv measured upto 48 hrs; format: ADME, organism-based; details: in vivo
[12] = Half life in ICR mouse at 30 mg/kg, po measured upto 48 hrs; format: ADME, organism-based; details: ICR, in vivo
[13] = Apparent volume of distribution in ICR mouse at 3 mg/kg, iv measured upto 48 hrs; format: ADME, organism-based; details: in vivo, read-out: Vz
[14] = Apparent volume of distribution in ICR mouse at 30 mg/kg, po measured upto 48 hrs; format: ADME, organism-based; details: in vivo
[15] = Clearance in ICR mouse at 3 mg/kg, iv measured upto 48 hrs; format: ADME, organism-based; details: in vivo
[16] = Clearance in ICR mouse at 30 mg/kg, po measured upto 48 hrs; format: ADME, organism-based; details: ICR, in vivo
[17] = Oral bioavailability in ICR mouse at 30 mg/kg measured upto 48 hrs; format: ADME, organism-based; details: in vivo
Neutrophil = assay: In vivo antagonist activity at CXCR2 in carrageenan-induced C57BL/6 mouse air pouch inflammation model assessed as reduction in neutrophil infiltration into air pouch at 30 mg/kg, po bid administered after 3 days of carrageenan treatment for 3 days; format: functional, organism-based; details: time 3.0 day
Panc02 [18] = assay: Antitumour activity against mouse Panc02 cells xenografted in mouse assessed as tumour growth inhibition at 10 mg/kg, po bid […]; format: functional; details: read-out: TGI
Panc02 [19] = assay: Antitumour activity against mouse Panc02 cells xenografted in mouse assessed as tumour growth inhibition at 3 mg/kg, po bid […]; format: functional; details: read-out: TGI
Panc02 [20] = assay: Cytotoxicity against mouse Panc02 cells assessed as reduction in cell viability measured after 72 hrs by CCK8 assay; format: cell-based; details: panc02, 72 h
PANC-1 = assay: Cytotoxicity against human PanC-1 cells assessed as reduction in cell viability measured after 72 hrs by CCK8 assay; format: cell-based; details: PANC-1, 72 h
SW1990 = assay: Cytotoxicity against human SW1990 cells assessed as reduction in cell viability measured after 72 hrs by CCK8 assay; format: cell-based; details: SW1990, 72 h
BXPC-3 = assay: Cytotoxicity against human BxPC3 cells assessed as reduction in cell viability measured after 72 hrs by CCK8 assay; format: cell-based; details: BXPC-3, 72 h
MIA PaCa-2 = assay: Cytotoxicity against human MIA PaCa-2 cells assessed as reduction in cell viability measured after 72 hrs by CCK8 assay; format: cell-based; details: MIA PaCa-2, 72 h
[21] = Cytotoxicity against human PBMC cells assessed as reduction in cell viability measured after 72 hrs by CCK8 assay; format: cell-based
Panc02 [22] = assay: Antitumour activity against mouse Panc02 cells xenografted in mouse assessed as reduction in infiltration of neutrophils into tumor tissue at 3 mg/kg, po bid measured after 15 days by flow cytometry analysis; format: functional, organism-based; details: time 15.0 day
Panc02 [23] = assay: Antitumour activity against mouse Panc02 cells xenografted in mouse assessed as reduction in infiltration of granulocytic MDSCs into tumor tissue at 3 mg/kg, po bid measured after 15 days by flow cytometry analysis; format: functional, organism-based; details: time 15.0 day
Panc02 [24] = assay: Antitumour activity against mouse Panc02 cells xenografted in mouse assessed as change in CD45 expressing immune cells infiltration into tumor tissue at 10 mg/kg, po bid measured after 15 days by flow cytometry analysis (reference value: 2.3%); format: functional; details: time 15 day
Panc02 [25] = assay: Antitumour activity against mouse Panc02 cells xenografted in mouse assessed as change in CD45 expressing immune cells infiltration into tumor tissue at 3 mg/kg, po bid measured after 15 days by flow cytometry analysis (reference value: 2.3%); format: functional; details: time 15 day
Panc02 [26] = assay: Antitumour activity against mouse Panc02 cells xenografted in mouse assessed as change in Gr1 expressing immune cells infiltration into tumor tissue at 10 mg/kg, po bid measured after 15 days by flow cytometry analysis (reference value: 27.4%); format: functional; details: time 15 day
Panc02 [27] = assay: Antitumour activity against mouse Panc02 cells xenografted in mouse assessed as change in CD45 expressing immune cells infiltration into tumor tissue at 3 mg/kg, po bid measured after 15 days by flow cytometry analysis (reference value: 27.4%); format: functional; details: time 15 day
Panc02 [28] = assay: Antitumour activity against mouse Panc02 cells xenografted in mouse assessed as change in CD11b expressing immune cells infiltration into tumor tissue using LY6G antibody at 10 mg/kg, po bid measured after 15 days by flow cytometry analysis (reference value: 29.7%); format: functional; details: time 15 day
Panc02 [29] = assay: Antitumour activity against mouse Panc02 cells xenografted in mouse assessed as change in CD11b expressing immune cells infiltration into tumor tissue using LY6G antibody at 3 mg/kg, po bid measured after 15 days by flow cytometry analysis (reference value: 29.7%); format: functional; details: time 15 day
Panc02 [30] = assay: Antitumour activity against mouse Panc02 cells xenografted in mouse assessed as change in CD11b expressing immune cells infiltration into tumor tissue using LY6C antibody at 10 mg/kg, po bid measured after 15 days by flow cytometry analysis (reference value: 20.5%); format: functional; details: time 15 day
Panc02 [31] = assay: Antitumour activity against mouse Panc02 cells xenografted in mouse assessed as change in CD11b expressing immune cells infiltration into tumor tissue using LY6C antibody at 3 mg/kg, po bid measured after 15 days by flow cytometry analysis (reference value: 20.5%); format: functional; details: time 15 day
Panc02 [32] = assay: Antitumour activity against mouse Panc02 cells xenografted in mouse assessed as reduction in infiltration of neutrophils into tumor tissue at 30 mg/kg, po bid measured after 15 days by immunohistochemical analysis; format: functional, organism-based; details: time 15.0 day
Panc02 [33] = assay: Antitumour activity against mouse Panc02 cells xenografted in mouse assessed as reduction in infiltration of granulocytic MDSCs into tumor tissue at 30 mg/kg, po bid measured after 15 days by immunohistochemical analysis; format: functional, organism-based; details: time 15.0 day
Mus musculus = assay: Effect on granulocytic MDSCs level in mouse xenografted with […] cells at 10 to 30 mg/kg, po bid measured after 15 days by immunohistochemical analysis; format: ADME, organism-based; details: in vivo, 360 h, dose 10-30 mg/kg, time 15 day
Panc02 [34] = assay: Antitumour activity against mouse Panc02 cells xenografted in mouse assessed as upregulation of infiltration of CD3+ T cell into tumor tissue treated po twice a day measured after 15 days by immunohistochemical analysis; format: functional, organism-based; details: dose 10-30 mg/kg, time 15.0 day

## Cc1c(F)cccc1NC(=O)Nc1ccc2c(c1O)S(=O)(=O)CC=C2
[1]
  IC50: 0.034 µM
[2]
  Ki: 0.44 µM
[3]
  Tmax: 3 min
[4]
  Tmax: 3.42 h
[5]
  Cmax: 5120 ng/mL
[6]
  Cmax: 419 ng/mL
[7]
  AUC(0-t) at 48 h: 1510 ng·h/mL
[8]
  AUC(0-t) at 48 h: 3510 ng·h/mL
[9]
  AUC(0-inf): 1550 ng·h/mL
[10]
  AUC(0-inf): 3570 ng·h/mL
[11]
  half-life: 3.39 h
[12]
  half-life: 3.83 h
[13]
  Vd: 9.82 L/kg
[14]
  Vz: 47.39 L/kg
[15]
  clearance: 32.8 mL/min/kg
[16]
  CL/F: 143 mL/min/kg
[17]
  bioavailability: 23.2%
Neutrophil
  Activity: Active
Panc02 [18]
  inhibition in vivo at 10 mg/kg: 66.7%
Panc02 [19]
  inhibition in vivo at 3 mg/kg: 58.2%
Panc02 [20]
  Activity: Non-Toxic
PANC-1
  IC50: > 10 µM
SW1990
  IC50: > 10 µM
BXPC-3
  IC50: > 10 µM
MIA PaCa-2
  IC50: > 10 µM
[21]
  IC50: > 10 µM
Panc02 [22]
  Activity: Active
Panc02 [23]
  Activity: Active
Panc02 [24]
  Activity: 40.2%
Panc02 [25]
  Activity: 34.9%
Panc02 [26]
  Activity: 7.6%
Panc02 [27]
  Activity: 12.7%
Panc02 [28]
  Activity: 8.11%
Panc02 [29]
  Activity: 15.8%
Panc02 [30]
  Activity: 17.8%
Panc02 [31]
  Activity: 15%
Panc02 [32]
  Activity: Active
Panc02 [33]
  Activity: Active
Mus musculus
  Activity: Non-Toxic
Panc02 [34]
  Activity: Dose-Dependent Effect
